Where a name gives a salt, the structure may show the parent alone.
Legend:
[1] = tested on: CHIKV strain Nic; assay: microbe, parasite or virus in culture; assay type: cell-based; conditions: Chikungunya virus, Vero, read-out: EC50 (M ± SD), CHIKV
[2] = tested on: Enterovirus C vaccine strain Sabin 1 of poliovirus type 1 (PV1); assay: microbe, parasite or virus in culture; assay type: cell-based; conditions: RD, 120 h, read-out: EC50 (M ± SD), PV1
[3] = tested on: Enterovirus A Coxsackievirus A16 (CVA16) isolate 49360; assay: microbe, parasite or virus in culture; assay type: cell-based; conditions: RD, 120 h, read-out: EC50 (M ± SD), CVA16
[4] = Cell viability assay (resazurin) for Vero cells; conditions: African green monkey, confluent Vero cell monolayers
[5] = tested on: SARS-CoV-2 strain PIK35; assay: microbe, parasite or virus in culture; assay type: cell-based; conditions: Severe acute respiratory syndrome coronavirus 2, Vero, read-out: EC50 (M ± SD), SARS-CoV-2
[6] = Cell viability assay for RD cells; conditions: human
[7] = tested on: Enterovirus B Echovirus 13 (E13) isolate 57088; assay: microbe, parasite or virus in culture; assay type: cell-based; conditions: RD, 120 h, read-out: EC50 (M ± SD), E13
[8] = Cell viability assay for MT-4 cells; conditions: human
[9] = tested on: HIV-1 strain NL4-3; assay: microbe, parasite or virus in culture; assay type: cell-based; conditions: Human immunodeficiency virus 1, NL43, MT4, 168 h, read-out: EC50 (M ± SD), HIV
[10] = physchem; conditions: aqueous with cosolvent or surfactant or cyclodextrin

SMILES: O=c1nc(NO)ccn1[C@@H]1O[C@H](CO)[C@@H](O)[C@H]1O [NHC, N^4-hydroxycytidine, reference compound]
- EC50 [1]: 23.6 ± 10.2 µM
- EC50 [2]: 25 ± 10 µM
- EC50 [3]: 50 ± 18 µM
- CC50 at 5 days [4]: > 100 µM
- EC50 [5]: 4.7 ± 2.9 µM
- CC50 at 5 days [6]: > 100 µM
- EC50 [7]: 17 ± 8 µM

SMILES: O=C(O)c1c(Cl)c(Cl)c(Cl)c(Cl)c1-c1c2cc(I)c(=O)c(I)c-2oc2c(I)c(O)c(I)cc12 [compound 1, Rose Bengal, disodium salt, reference compound]
- EC50 [1]: 0.11 ± 0.05 µM
- EC50 [2]: > 100 µM
- EC50 [3]: > 100 µM
- CC50 at 7 days [8]: > 50 µM
- CC50 at 5 days [4]: 43 ± 10 µM
- EC50 [5]: 0.5 ± 0.2 µM
- EC50 [9]: 18 ± 7 µM
- CC50 at 5 days [6]: 43 ± 10 µM
- EC50 [7]: > 100 µM
- solubility kinetic [10]: > 50 µM

SMILES: Cc1cn([C@H]2C[C@H](N=[N+]=[N-])[C@@H](CO)O2)c(=O)[nH]c1=O [AZT, azidothymidine, reference compound]
- CC50 at 7 days [8]: > 5 µM
- EC50 [9]: 0.01 µM

SMILES: CCCCCCCCCCCCOC(=O)c1c(Cl)c(Cl)c(Cl)c(Cl)c1-c1c2cc(I)c(=O)c(I)c-2oc2c(I)c(O)c(I)cc12 [2e, Rose Bengal N-Dodecyl Ester, Monosodium Salt]
- EC50 [1]: 0.038 ± 0.03 µM
- EC50 [2]: > 100 µM
- EC50 [3]: > 100 µM
- CC50 at 7 days [8]: > 50 µM
- CC50 at 5 days [4]: > 100 µM
- EC50 [5]: 43 ± 10 µM
- EC50 [9]: > 50 µM
- CC50 at 5 days [6]: 21.3 ± 5.2 µM
- EC50 [7]: > 100 µM

SMILES: CCCCOC(=O)c1c(Cl)c(Cl)c(Cl)c(Cl)c1-c1c2cc(I)c(=O)c(I)c-2oc2c(I)c(O)c(I)cc12 [2a, Rose Bengal N-Butyl Ester, Monosodium Salt]
- EC50 [1]: 0.004 ± 0.002 µM
- EC50 [2]: > 100 µM
- EC50 [3]: > 100 µM
- CC50 at 7 days [8]: 15 ± 4 µM
- CC50 at 5 days [4]: 8 ± 1 µM
- EC50 [5]: 0.05 ± 0.02 µM
- EC50 [9]: 6.3 ± 2.6 µM
- CC50 at 5 days [6]: 21.3 ± 5.2 µM
- EC50 [7]: > 100 µM
- solubility kinetic [10]: 3.1 µM

SMILES: CCCCCCCCOC(=O)c1c(Cl)c(Cl)c(Cl)c(Cl)c1-c1c2cc(I)c(=O)c(I)c-2oc2c(I)c(O)c(I)cc12 [2c, Rose Bengal N-Octyl Ester, Monosodium Salt]
- EC50 [1]: 0.0002 ± 0.0001 µM
- EC50 [2]: > 100 µM
- EC50 [3]: > 100 µM
- CC50 at 7 days [8]: 42 ± 10 µM
- CC50 at 5 days [4]: 53 ± 25 µM
- EC50 [5]: 5.3 ± 1.3 µM
- EC50 [9]: 8.8 ± 3.7 µM
- CC50 at 5 days [6]: 21.3 ± 5.2 µM
- EC50 [7]: > 100 µM

SMILES: CCCCCCCCCCOC(=O)c1c(Cl)c(Cl)c(Cl)c(Cl)c1-c1c2cc(I)c(=O)c(I)c-2oc2c(I)c(O)c(I)cc12 [2d, Rose Bengal N-Decyl Ester, Monosodium Salt]
- EC50 [1]: 0.002 ± 0.001 µM
- EC50 [2]: > 100 µM
- EC50 [3]: > 100 µM
- CC50 at 7 days [8]: 42 ± 10 µM
- CC50 at 5 days [4]: 60 ± 15 µM
- EC50 [5]: 6.6 ± 3.1 µM
- EC50 [9]: 8.8 ± 2.6 µM
- CC50 at 5 days [6]: 10.7 ± 2.6 µM
- EC50 [7]: > 100 µM

SMILES: CCCCCCOC(=O)c1c(Cl)c(Cl)c(Cl)c(Cl)c1-c1c2cc(I)c(=O)c(I)c-2oc2c(I)c(O)c(I)cc12 [2b, Rose Bengal N-Hexyl Ester, Monosodium Salt]
- EC50 [1]: 0.0007 ± 0.0003 µM
- EC50 [2]: > 100 µM
- EC50 [3]: > 100 µM
- CC50 at 7 days [8]: 15 ± 4 µM
- CC50 at 5 days [4]: 60 ± 15 µM
- EC50 [5]: 0.4 ± 0.3 µM
- EC50 [9]: 4.4 ± 1.8 µM
- CC50 at 5 days [6]: 21.3 ± 5.2 µM
- EC50 [7]: > 100 µM
- solubility kinetic [10]: 1 µM

Reference: paper PMC9687286, “Hydrophobic Rose Bengal Derivatives Exhibit Submicromolar-to-Subnanomolar Activity against Enveloped Viruses” (Biomolecules, 2022)
